Measurements as given in patent US20110091485A1, “MODULATION OF CELL JUNCTIONS” (priority 2007, published 2011).
Where a SMILES comes first, the peptide text is derived from it. [ ]: non-standard residue; d: D form. Nle = CCCC[C@H](N)C(=O)O

Key:
Gp140 [1] = molecular target: T1, Gp140 (Homo sapiens, UniProt Q9H5V8); assay type: cell-based; settings: keratinocytes, P1C3 15 min, suramin 35 μM
T1 construct: endogenous in cells; host or cells: human keratinocytes (HKs)
Experimental: Zymosan or ActGp140 mAb were added to keratinocytes and incubated (30 min), washed, fixed (2% formaldehyde in cacodylate, 10 min) and permeabilized (0.5% Triton-X100, 5 min).
Human keratinocytes were grown in 30 μM Ca^+2 then treated with zymosan (20 μg/10^6 cells) for 30 min or 2 h, extracted with Triton X-100 (0.5% for 5 min) and fixed and stained with Abs against ZO-1 and afadin (AF-6).
Keratinocytes were treated (2 h) with ActGp140 mAb, washed, extracted with Triton X-100 detergent (0.5%, 5 min, 4° C.), fixed and stained with Abs against the indicated proteins.
Keratinocytes (grown in 30 μM Ca^+2) were untreated or treated with ActGp140 or NActGp140 mAbs for 1.5 hrs, washed, extracted with Triton X-100 (0.5% at 4° C. for 5 min) then stained.
(b-c) anti-Gp140 mAb (P1C3). (d) Same field as c stained with Abs against Gp140pY734.

Gp140 [2] = molecular target: T2, Gp140 (Mus musculus, UniProt Q5U462); settings: cited from earlier work
T2 construct: from tissue; host or cells: mouse epidermis
T2 sequence (Q5U462 30-833): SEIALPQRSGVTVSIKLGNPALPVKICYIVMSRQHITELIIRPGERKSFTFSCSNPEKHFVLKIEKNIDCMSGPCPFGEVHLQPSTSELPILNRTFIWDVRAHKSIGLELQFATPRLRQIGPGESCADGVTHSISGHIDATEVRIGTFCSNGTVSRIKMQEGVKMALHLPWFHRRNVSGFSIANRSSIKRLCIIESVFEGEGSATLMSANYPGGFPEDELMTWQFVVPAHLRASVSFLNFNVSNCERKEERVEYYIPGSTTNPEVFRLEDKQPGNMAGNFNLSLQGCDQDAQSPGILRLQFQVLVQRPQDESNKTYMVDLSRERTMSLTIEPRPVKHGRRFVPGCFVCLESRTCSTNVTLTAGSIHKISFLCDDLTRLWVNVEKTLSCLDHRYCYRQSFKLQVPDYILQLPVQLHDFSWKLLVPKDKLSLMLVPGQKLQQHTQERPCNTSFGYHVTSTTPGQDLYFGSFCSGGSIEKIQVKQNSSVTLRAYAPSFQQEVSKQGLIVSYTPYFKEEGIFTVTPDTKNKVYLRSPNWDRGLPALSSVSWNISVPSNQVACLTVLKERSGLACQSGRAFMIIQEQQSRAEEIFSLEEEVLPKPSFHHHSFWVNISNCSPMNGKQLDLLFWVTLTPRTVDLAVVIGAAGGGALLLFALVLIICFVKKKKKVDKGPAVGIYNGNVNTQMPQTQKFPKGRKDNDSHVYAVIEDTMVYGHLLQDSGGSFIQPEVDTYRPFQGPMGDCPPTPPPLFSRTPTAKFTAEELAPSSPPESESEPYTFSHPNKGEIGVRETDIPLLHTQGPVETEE

Gp140 [3] = molecular target: T1, Gp140; assay: α-catenin localization in cell-cell contacts of keratinocytes grown in low Ca+2; assay type: cell-based; settings: 30 μM Ca+2, suramin 35 μM, 3 hrs
Experimental: FIG. 25. Signals through Gp140/CDCP1 promote α-catenin in cell-cell contacts. Human keratinocytes were grown in low Ca^+2 (30 μM) in order to disassemble adherens junctions that contain cadherins and α-catenin. The keratinocytes were treated without (−Left panel) or with (+Right Panel) Gp140 siRNA to knockdown expression of Gp140. […] Arrows indicate minor subpopulation of cells where Gp140 was not knocked down surrounded by the majority of Gp140 was knocked down.
Signals through Gp140/CDCP1 promote α-catenin in cell-cell contacts. Human keratinocytes were grown in low Ca^+2 (30 μM) in order to disassemble adherens junctions that contain cadherins and α-catenin. The keratinocytes were treated without or with Gp140 siRNA to knockdown expression of Gp140. […] Arrows indicate minor subpopulation of cells where Gp140 was not knocked down surrounded by the majority of Gp140 was knocked down.

Gp140 [4] = molecular target: T1, Gp140; assay: Phosphorylation of Gp140, SFK and PKCδ in keratinocytes (immunoblotting); assay type: cell-based; settings: 5 min
Cx43 = Cx43 levels and Y247 phosphorylation in LA25 cells treated with ALLN (immunoblot); assay type: cell-based; settings: LA25 cells at 35° C. (src active), ALLN 3 h
Experimental: FIG. 16. (A) Src activity leads to reduced levels of Cx43 in gap junctions unless rescued by ALLN treatment. LA25 cells grown at 40° C. or 35° C. (permissive) were untreated or treated with ALLN for 3 h and total Cx43 levels were determined by immunoblot. […] Cells grown at 35° C. were treated with ALLN for 3 h or untreated and pY247 and pY265 levels relative to total Cx43 were determined. In both A & B total cell lysates were harvested, blotted and probed (n=4 separate expts).

GJC = settings: cited from earlier work
SFKs = assay: SFK inhibition with PP2 in keratinocytes (Cx43 immunofluorescence, scratch wound); assay type: cell-based
Experimental: FIG. 13. […] Keratinocytes were pretreated with PP2 (5 μM, 2 h), scratch wounded and after 12 h were fixed in cold methoano/acetone and processed for immunofluorescence for total Cx43 (green). Cell nuclei were stained with DAPI (blue) and the scratched area is shown by an arrow.

T1 sequence (Q9H5V8 30-836): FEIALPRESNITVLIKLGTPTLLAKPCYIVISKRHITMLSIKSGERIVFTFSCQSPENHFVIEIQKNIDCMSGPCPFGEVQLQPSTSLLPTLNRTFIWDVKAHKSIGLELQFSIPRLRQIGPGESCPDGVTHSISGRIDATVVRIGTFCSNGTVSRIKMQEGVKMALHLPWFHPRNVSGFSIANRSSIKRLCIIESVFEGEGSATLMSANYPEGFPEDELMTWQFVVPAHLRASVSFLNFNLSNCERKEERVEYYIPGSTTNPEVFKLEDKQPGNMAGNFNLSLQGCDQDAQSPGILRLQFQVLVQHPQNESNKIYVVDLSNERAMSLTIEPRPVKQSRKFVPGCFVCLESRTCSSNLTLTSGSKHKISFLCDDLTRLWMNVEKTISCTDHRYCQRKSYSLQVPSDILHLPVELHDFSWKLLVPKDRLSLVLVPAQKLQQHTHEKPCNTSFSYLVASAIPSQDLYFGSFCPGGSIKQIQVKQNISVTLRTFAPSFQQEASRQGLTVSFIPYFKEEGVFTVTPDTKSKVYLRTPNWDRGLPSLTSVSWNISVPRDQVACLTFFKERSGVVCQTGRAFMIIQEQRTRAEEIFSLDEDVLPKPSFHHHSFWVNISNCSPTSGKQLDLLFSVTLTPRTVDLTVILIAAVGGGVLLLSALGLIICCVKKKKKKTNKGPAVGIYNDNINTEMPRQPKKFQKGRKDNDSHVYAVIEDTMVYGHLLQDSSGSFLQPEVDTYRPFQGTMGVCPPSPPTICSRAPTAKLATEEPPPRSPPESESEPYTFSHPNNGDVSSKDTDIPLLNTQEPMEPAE

SMILES: Cc1ccc(C(=O)Nc2ccc(S(=O)(=O)O)c3cc(S(=O)(=O)O)cc(S(=O)(=O)O)c23)cc1NC(=O)c1cccc(NC(=O)Nc2cccc(C(=O)Nc3cc(C(=O)Nc4ccc(S(=O)(=O)O)c5cc(S(=O)(=O)O)cc(S(=O)(=O)O)c45)ccc3C)c2)c1 [suramin]
- phosphorylation and assembly of Gp140 in detergent-resistant membrane clusters in cell-cell contacts (Gp140 [1]): increases phosphorylation and assembly of Gp140 in detergent-resistant Gp140 membrane clusters
- phosphorylation and cleavage of Gp140 in mouse epidermis (Gp140 [2]): induces phosphorylation and proteolytic cleavage of Gp140 to p80
- α-catenin in cell-cell contacts (Gp140 [3]): dramatic accumulation of α-catenin in cell-cell contacts
- PKC activity determined by phosphorylation of VaspS157 (Gp140 [4]): increased
- phosphorylation of Gp140Y734, SFKY416 and PKCdY311 by SFKs (Gp140 [4]; suramin 35 μM): increased phosphorylation

SMILES: CCCC[C@@H](C=O)NC(=O)[C@H](CC(C)C)NC(=O)[C@H](CC(C)C)NC(C)=O [ALLN] (Ac-Leu-Leu-[Nle]-aldehyde)
- Y247 phosphorylation relative to total Cx43 (Cx43): increases the levels of Y247 phosphorylation relative to total Cx43

SMILES: CC1(C)[C@@H](OC(=O)CCC(=O)O)CC[C@]2(C)[C@H]3C(=O)C=C4[C@@H]5C[C@@](C)(C(=O)O)CC[C@]5(C)CC[C@@]4(C)[C@]3(C)CC[C@@H]12 [CBX, 18α-carbenoxalone]
- wound outgrowth (GJC): prevents wound outgrowth when applied before, but not after wounding

SMILES: CC(C)(C)n1nc(-c2ccc(Cl)cc2)c2c(N)ncnc21 [PP2]
- gap junctional density at wound cell-cell interfaces (total Cx43) (SFKs; PP2 5 μM, 2 h pretreatment, scratch wound, 12 h): increases gap junctional density at wound cell-cell interfaces
- cell surface Gp140, junctional Cx43 and dye transfer (SFKs; keratinocytes): dramatic increases in cell surface Gp140 and junctional Cx43 and dye transfer
